{"source": "patent US20070232685A1", "about": "“CRYSTALLINE FORMS OF N-(BENZO[B]THIEN-3-YLMETHYL)-SULFAMIDE” (priority 2006, published 2007)", "origin": "cited, not measured here", "system": "carbonic anhydrase", "conditions": "background statement on a known anticonvulsant; no method given", "data": [{"smiles": "CC1(C)O[C@@H]2[C@@H](CO[C@@]3(COS(N)(=O)=O)OC(C)(C)O[C@@H]23)O1", "note": "[Topiramate]", "values": [{"measurement": "carbonic anhydrase inhibition", "result": "single digit micromolar"}]}]}
